This assay has as its target T1, human PD-1 / PD-L1-Ig binding on Jurkat cell line over-expressing human PD-1 (Jurkat-PD-1) (Homo sapiens, UniProt Q15116).
T1 construct: expressed in transfected cells; host or cells: Jurkat
Description: Jurkat-PD-1 Cell Binding High-Content Screening Assay (CBA). The conditions noted are these: Jurkat-PD-1 cells, PE-labeled PD-L1-Ig 20 nM final; read-out: Jurkat HPD1_PDL1 IC50. Type of assay: cell-based. In a few lines: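 Compounds were preincubated with Jurkat-hPD-1 cells in DMEM plus 10% fetal calf serum for 2 h at 37° C. Phycoerythrin-labeled PD-L1-Ig (20 nM final) was then added for 1 hour. Cells were fixed in 4% paraformaldehyde with Hoechst 33342, and bound fluorescence was quantified by high-content imaging.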

*1 amine or outer side, *2 acyl side, *3 side chain or, on linkers, in order; H or OH if unused. Where a SMILES comes first, the peptide text is derived from it. Bridges are numbered along the chain shown (N, C = ends). [ ]: non-standard residue; d: D form. The star is where a group is joined. ξ: configuration not given here. Phe(4-COOH) = N[C@@H](Cc1ccc(C(=O)O)cc1)C(=O)O; X5 = O=C([C@H](Cc1ccc2ncccc2c1)N[*:1])[*:2]; Bip = N[C@@H](Cc1ccc(-c2ccccc2)cc1)C(=O)O; Phe(3-Cl) = N[C@@H](Cc1cccc(Cl)c1)C(=O)O; Phe(3-Me) = Cc1cccc(C[C@H](N)C(=O)O)c1; Val(3-OH) = CC(C)(O)[C@H](N)C(=O)O; 4Pal = N[C@@H](Cc1ccncc1)C(=O)O; Cha = N[C@@H](CC1CCCCC1)C(=O)O; Cit = NC(=O)NCCC[C@H](N)C(=O)O; Thr(3ξ) = CC(O)[C@H](N)C(=O)O; Carboxymethyl = O=C(O)C*; Nle = CCCC[C@H](N)C(=O)O; Orn = NCCC[C@H](N)C(=O)O; Dab = NCC[C@H](N)C(=O)O; Dap = NC[C@H](N)C(=O)O; Piv = CC(C)(C)C(=O)*

Experimental findings from patent US20250163104A1, “MACROCYCLIC IMMUNOMODULATORS” (priority 2021, published 2025) are described below.

T1 sequence (Q15116 25-288): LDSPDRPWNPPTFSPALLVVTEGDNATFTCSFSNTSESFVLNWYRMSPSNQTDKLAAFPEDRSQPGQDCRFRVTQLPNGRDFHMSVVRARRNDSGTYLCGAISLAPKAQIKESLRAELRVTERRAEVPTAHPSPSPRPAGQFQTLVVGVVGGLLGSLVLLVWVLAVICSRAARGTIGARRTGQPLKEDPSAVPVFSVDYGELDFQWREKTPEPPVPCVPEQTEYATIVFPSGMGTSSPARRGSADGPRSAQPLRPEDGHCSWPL

With `CC(C)C[C@H]1NC(=O)[C@H](CCCN)NC(=O)[C@H](CCCNC(N)=O)NC(=O)[C@H](Cc2ccc(-c3ccccc3)cc2)NC(=O)[C@H](C(C)C)NC(=O)[C@H](Cc2c[nH]c3ccccc23)NC(=O)[C@H](CC(=O)O)NC(=O)[C@H](Cc2ccc(C(=O)O)cc2)NC(=O)[C@H](Cc2ccc(OCC(=O)O)cc2)NC(=O)CSC[C@@H](C(=O)N[C@@H](C)C(N)=O)NC(=O)[C@H]([C@@H](C)O)NC(=O)[C@H](C(C)C)NC(=O)[C@H](Cc2ccc(O)cc2)NC(=O)[C@H](CCN)NC1=O` [Compound 1684] ({CH2CO}-Y(Carboxymethyl)[Phe(4-COOH)]DWV[Bip][Cit][Orn][dL][Dab]YVTCA-NH2; thioether N-14), the IC50 (usually the midpoint of a concentration-inhibition curve) was determined as 120 nM. With `CC(C)C[C@H]1NC(=O)[C@H](CCCN)NC(=O)[C@H](C(C)C)NC(=O)[C@H](Cc2ccc(-c3ccccc3)cc2)NC(=O)[C@H](C(C)C)NC(=O)[C@H](Cc2cccc(Cl)c2)NC(=O)[C@H](CC(=O)O)NC(=O)[C@H](Cc2ccncc2)NC(=O)[C@H](CN)NC(=O)CSC[C@@H](C(=O)N[C@@H](C)C(N)=O)NC(=O)[C@H]([C@@H](C)O)NC(=O)[C@H](C(C)C)NC(=O)[C@H](CC2CCCCC2)NC(=O)[C@H](CCN)NC1=O` [Compound 1578] ({CH2CO}-[Dap][4Pal]D[Phe(3-Cl)]V[Bip]V[Orn][dL][Dab][Cha]VTCA-NH2; thioether N-14), the 50% inhibitory concentration (IC50) turned out to be 35 nM.

Regarding `CC(C)C[C@H]1NC(=O)[C@H](CCCN)NC(=O)[C@H](CCCNC(N)=O)NC(=O)[C@H](Cc2ccc(-c3ccccc3)cc2)NC(=O)[C@H](C(C)C)NC(=O)[C@H](Cc2c[nH]c3ccccc23)NC(=O)[C@H](CC(=O)O)NC(=O)[C@H](Cc2cccc3ccccc23)NC(=O)[C@H](CN)NC(=O)CSC[C@@H](C(=O)N[C@@H](C)C(N)=O)NC(=O)[C@H]([C@@H](C)O)NC(=O)[C@H](C(C)C)NC(=O)[C@H](CC2CCCCC2)NC(=O)[C@H](CCN)NC1=O` [Compound 2115], the IC50 is 53.4 nM. Under `Cc1cccc(C[C@@H]2NC(=O)[C@H](CC(=O)O)NC(=O)[C@H](Cc3ccc(C(=O)O)cc3)NC(=O)[C@H](Cc3ccncc3)NC(=O)CSC[C@@H](C(=O)N[C@@H](CCN)C(N)=O)NC(=O)[C@H](CO)NC(=O)[C@H](C(C)C)NC(=O)[C@H](CC3CCCCC3)NC(=O)[C@H](CCN)NC(=O)[C@@H](CC(C)C)NC(=O)[C@H](CCCN)NC(=O)[C@H](Cc3ccc(OCC(=O)O)cc3)NC(=O)[C@H](Cc3ccc(-c4ccccc4)cc3)NC(=O)[C@H](Cc3ccc(OCC(=O)O)cc3)NC2=O)c1` [Compound 2307] ({CH2CO}-[4Pal][Phe(4-COOH)]D[Phe(3-Me)]Y(Carboxymethyl)[Bip]Y(Carboxymethyl)[Orn][dL][Dab][Cha]VSC[Dab]-NH2; thioether N-14) stands 12.1 nM. Turning to `Cc1cccc(C[C@@H]2NC(=O)[C@H](CC(=O)O)NC(=O)[C@H](Cc3ccc(C(=O)O)cc3)NC(=O)[C@H](Cc3ccncc3)NC(=O)CSC[C@@H](C(N)=O)NC(=O)[C@H](CCCN)NC(=O)[C@H](C(C)C)NC(=O)[C@H](CC3CCCCC3)NC(=O)[C@H](CCN)NC(=O)[C@@H](CC(C)C)NC(=O)[C@H](CCCN)NC(=O)[C@H](CCCNC(N)=O)NC(=O)[C@H](Cc3ccc(-c4ccccc4)cc3)NC(=O)[C@H](C(C)C)NC2=O)c1` [Compound 2265] ({CH2CO}-[4Pal][Phe(4-COOH)]D[Phe(3-Me)]V[Bip][Cit][Orn][dL][Dab][Cha]V[Orn]C-NH2; thioether N-14), the IC50 was 12.8 nM. As for `Cc1cccc(C[C@@H]2NC(=O)[C@H](CC(=O)O)NC(=O)[C@H](Cc3ccc(OCC(=O)O)cc3)NC(=O)[C@H](Cc3cnc[nH]3)NC(=O)CSC[C@@H](C(=O)N[C@@H](CCN)C(N)=O)NC(=O)[C@H](C(C)O)NC(=O)[C@H](C(C)(C)O)NC(=O)[C@H](CC3CCCCC3)NC(=O)[C@H](CCN)NC(=O)[C@@H](CC(C)C)NC(=O)[C@H](CCCN)NC(=O)[C@H](Cc3ccc(OCC(=O)O)cc3)NC(=O)[C@H](Cc3ccc(-c4ccccc4)cc3)NC(=O)[C@H](Cc3ccc(OCC(=O)O)cc3)NC2=O)c1` (stereo partly drawn) [Compound 2649] ({CH2CO}-HY(Carboxymethyl)D[Phe(3-Me)]Y(Carboxymethyl)[Bip]Y(Carboxymethyl)[Orn][dL][Dab][Cha][Val(3-OH)][Thr(3ξ)]C[Dab]-NH2; thioether N-14), the 50% inhibitory concentration (IC50) amounted to 7.2 nM. As for `Cc1cccc(C[C@@H]2NC(=O)[C@H](CC(=O)O)NC(=O)[C@H](Cc3ccc(OCC(=O)O)cc3)NC(=O)[C@H](CN)NC(=O)CSC[C@@H](C(=O)N[C@@H](CCN)C(N)=O)NC(=O)[C@H](CCNC(=O)C(C)(C)C)NC(=O)[C@H](C(C)C)NC(=O)[C@H](CC3CCCCC3)NC(=O)[C@H](CCN)NC(=O)[C@@H](CC(C)C)NC(=O)[C@H](CCCN)NC(=O)[C@H](Cc3ccc(O)cc3)NC(=O)[C@H](Cc3ccc(-c4ccccc4)cc3)NC(=O)[C@H](Cc3ccc(O)cc3)NC2=O)c1` [Compound 2044] ({CH2CO}-[Dap]Y(Carboxymethyl)D[Phe(3-Me)]Y[Bip]Y[Orn][dL][Dab][Cha]V[Dab](Piv)C[Dab]-NH2; thioether N-14), the IC50 was determined as 9.7 nM. Take `CC(C)C[C@H]1NC(=O)[C@H](CCCN)NC(=O)[C@H](CCC(=O)O)NC(=O)[C@H](Cc2ccc(-c3ccccc3)cc2)NC(=O)[C@H](C(C)C)NC(=O)[C@H](Cc2c[nH]c3ccccc23)NC(=O)[C@H](CC(=O)O)NC(=O)[C@H](Cc2ccc3ncccc3c2)NC(=O)[C@H](Cc2ccncc2)NC(=O)CSC[C@@H](C(=O)N[C@@H](C)C(N)=O)NC(=O)[C@H]([C@@H](C)O)NC(=O)[C@H](C(C)C)NC(=O)[C@H](CC2CCCCC2)NC(=O)[C@H](CCN)NC1=O` [Compound 2179] ({CH2CO}-[4Pal][X5]DWV[Bip]E[Orn][dL][Dab][Cha]VTCA-NH2; thioether N-14): the IC50 was 65.1 nM. `CCC[C@@H]1NC(=O)[C@H](Cc2c[nH]c3ccccc23)NC(=O)[C@H](CC(=O)O)NC(=O)[C@H](Cc2ccc(OCC(=O)O)cc2)NC(=O)[C@H](CN)NC(=O)CSC[C@@H](C(=O)N[C@@H](C)C(N)=O)NC(=O)[C@H]([C@@H](C)O)NC(=O)[C@H](C(C)C)NC(=O)[C@H](CC2CCCCC2)NC(=O)[C@H](CCN)NC(=O)[C@@H](CC(C)C)NC(=O)[C@H](CCCN)NC(=O)[C@H](CCC(=O)O)NC(=O)[C@H](Cc2ccc(-c3ccccc3)cc2)NC1=O` [Compound 1719]: the half-maximal inhibitory concentration (IC50) amounted to 21 nM. Turning to `CC(C)C[C@H]1NC(=O)[C@H](CCCN)NC(=O)[C@H](CCCNC(N)=O)NC(=O)[C@H](Cc2ccc(-c3ccccc3)cc2)NC(=O)[C@H](C(C)C)NC(=O)[C@H](Cc2c[nH]c3ccccc23)NC(=O)[C@H](CC(=O)O)NC(=O)[C@H](Cc2ccc(O)cc2)NC(=O)[C@H](Cc2ccc(OCC(=O)O)cc2)NC(=O)CSC[C@@H](C(=O)N[C@@H](C)C(N)=O)NC(=O)[C@H]([C@@H](C)O)NC(=O)[C@H](C(C)C)NC(=O)[C@H](CC2CCCCC2)NC(=O)[C@H](CCCNC(=N)N)NC1=O` [Compound 1154] ({CH2CO}-Y(Carboxymethyl)YDWV[Bip][Cit][Orn][dL]R[Cha]VTCA-NH2; thioether N-14), the IC50 stood at 9.2 nM. For the compound `CCCC[C@@H]1NC(=O)CSC[C@@H](C(=O)N[C@@H](CCN)C(N)=O)NC(=O)[C@H](CO)NC(=O)[C@H](C(C)(C)O)NC(=O)[C@H](CC2CCCCC2)NC(=O)[C@H](CCN)NC(=O)[C@@H](CC(C)C)NC(=O)[C@H](CCCN)NC(=O)[C@H](Cc2ccc(OCC(=O)O)cc2)NC(=O)[C@H](Cc2ccc(-c3ccccc3)cc2)NC(=O)[C@H](Cc2ccc(OCC(=O)O)cc2)NC(=O)[C@H](Cc2cccc(C)c2)NC(=O)[C@H](CC(=O)O)NC(=O)[C@H](Cc2ccc(OCC(=O)O)cc2)NC1=O` [Compound 2687] ({CH2CO}-[Nle]Y(Carboxymethyl)D[Phe(3-Me)]Y(Carboxymethyl)[Bip]Y(Carboxymethyl)[Orn][dL][Dab][Cha][Val(3-OH)]SC[Dab]-NH2; thioether N-14), the IC50 was 0.4 nM. Turning to `CC[C@H](C)[C@@H]1NC(=O)[C@H](Cc2ccc(-c3ccccc3)cc2)NC(=O)[C@H](C(C)C)NC(=O)[C@H](Cc2c[nH]c3ccccc23)NC(=O)[C@H](CC(=O)O)NC(=O)[C@H](Cc2ccc(O)cc2)NC(=O)[C@H](CC(N)=O)NC(=O)CSC[C@@H](C(=O)N[C@@H](C)C(N)=O)NC(=O)[C@H](CO)NC(=O)[C@H](C(C)C)NC(=O)[C@H](CC(C)C)NC(=O)[C@H](CCN)NC(=O)[C@@H](CC(C)C)NC(=O)[C@H](CCCCN)NC1=O` [Compound 1119] ({CH2CO}-NYDWV[Bip]IK[dL][Dab]LVSCA-NH2; thioether N-14), the IC50 was 13.3 nM.

`Cc1cccc(C[C@@H]2NC(=O)[C@H](CC(=O)O)NC(=O)[C@H](Cc3ccc(C(=O)O)cc3)NC(=O)[C@H](Cc3ccncc3)NC(=O)CSC[C@@H](C(=O)N[C@@H](CCN)C(N)=O)NC(=O)[C@H](CCC(N)=O)NC(=O)[C@H](C(C)C)NC(=O)[C@H](CC3CCCCC3)NC(=O)[C@H](CCN)NC(=O)[C@@H](CC(C)C)NC(=O)[C@H](CCCN)NC(=O)[C@H](Cc3ccc(OCC(=O)O)cc3)NC(=O)[C@H](Cc3ccc(-c4ccccc4)cc3)NC(=O)[C@H](Cc3ccc(OCC(=O)O)cc3)NC2=O)c1` [Compound 2309] ({CH2CO}-[4Pal][Phe(4-COOH)]D[Phe(3-Me)]Y(Carboxymethyl)[Bip]Y(Carboxymethyl)[Orn][dL][Dab][Cha]VQC[Dab]-NH2; thioether N-14): the IC50 was determined as 5.9 nM. Consider `CC(C)C[C@@H]1NC(=O)[C@H](CC(N)=O)NC(=O)[C@@H](CC(C)C)NC(=O)[C@H](CN)NC(=O)[C@H](C(C)C)NC(=O)[C@H](Cc2ccc(-c3ccccc3)cc2)NC(=O)[C@H](C(C)C)NC(=O)[C@H](Cc2c[nH]c3ccccc23)NC(=O)[C@H](CC(=O)O)NC(=O)[C@H](Cc2ccncc2)NC(=O)[C@H](CN)NC(=O)CSC[C@@H](C(=O)NCC(N)=O)NC(=O)[C@H](CO)NC(=O)[C@H](C(C)C)NC1=O` [Compound 1293] ({CH2CO}-[Dap][4Pal]DWV[Bip]V[Dap][dL]NLVSCG-NH2; thioether N-14), for which the concentration for half-maximal inhibition (IC50) was determined as 10.6 nM.
